Results reported in patent publication US9409905B2, “Antibacterial compounds and methods for use” (PTC THERAPEUTICS, INC., priority 2011, dated 2016).
In brackets after ≈: the same amount, converted by molar mass.

Assays:
[1] = tested on: E. coli 25922; assay: Antibacterial activity, microbroth dilution MIC (Table 1); assay type: cell-based, Escherichia coli; conditions: Escherichia coli; microbroth dilution; control Gram-negative E. coli 25922 strain; read-out: MIC, 25922
Procedure, shortened: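 Microbroth dilution was used. MIC, in μg/mL, is the lowest drug concentration preventing macroscopically visible growth under the test conditions.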

[2] = tested on: Escherichia coli (E. coli) BAS849; assay: as above; assay type: cell-based; conditions: microbroth dilution, super sensitive Gram-negative E. coli BAS849, read-out: MIC, BAS849
Procedure, shortened: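 Broth microdilution against S. aureus 29213, E. coli 25922 and hypersensitive E. coli BAS849. MIC in μg/mL is the lowest drug concentration preventing macroscopically visible growth under test conditions.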

[3] = tested on: Staphylococcus aureus (S. aureus) 29213; assay: as above; assay type: cell-based; conditions: microbroth dilution, Gram-positive S. aureus 29213, read-out: MIC, 29213
Procedure, shortened: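 MIC (μg/mL) is taken as the lowest concentration with no macroscopically visible growth. Strains tested by microbroth dilution: Gram-positive S. aureus 29213, control Gram-negative E. coli 25922, and super-sensitive E. coli BAS849.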

[4] = tested on: A. baumannii MXX2240; assay: Antibacterial activity, MIC, resistant strain (Table 4); assay type: cell-based; conditions: Acinetobacter baumannii, MXX2240; resistant A. baumannii MMX2240, multi-drug resistant clinical isolate; read-out: MIC, MMX2240
Procedure, shortened: (§1)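 Values are MICs in μg/mL, read as the lowest compound concentration at which no growth is visible by eye. They come from a microbroth dilution method.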

[5] = tested on: K. pneumoniae MXX1232; assay: as above; assay type: cell-based; conditions: Klebsiella pneumoniae, MXX1232; resistant K. pneumoniae MMX1232, multi-drug resistant clinical isolate; read-out: MIC, MMX1232
Procedure, shortened: as §1

[6] = tested on: E. coli LZ3111; assay: Antibacterial activity, MIC, quinolone resistant strain (Table 2); assay type: cell-based; conditions: Escherichia coli, LZ3111, read-out: MIC LZ3111
Procedure, shortened: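 Microbroth dilution method; MIC (μg/mL) is the lowest drug concentration preventing macroscopically visible growth under test conditions.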

[7] = tested on: Pseudomonas aeruginosa (P. aeruginosa) 27853; assay: Antibacterial activity, MIC (Table 5); assay type: cell-based; conditions: P. aeruginosa 27853, read-out: MIC, 27853
Procedure, shortened: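 Activity was measured by microbroth dilution. The MIC, in μg/mL, is the lowest drug concentration that prevents macroscopically visible growth under the test conditions.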

[8] = tested on: Acinetobacter baumannii (A. baumannii) BAA747; assay: Antibacterial activity, MIC (Table 4); assay type: cell-based; conditions: A. baumannii BAA747, read-out: MIC, BAA747
Procedure, shortened: as §1

[9] = tested on: Klebsiella pneumoniae (K. pneumoniae) 35657; assay: Antibacterial activity, MIC (Table 4); assay type: cell-based; conditions: K. pneumoniae 35657, read-out: MIC, 35657
Procedure, shortened: as §1

Row | Structure (SMILES) | MIC [1] [µg/mL] | MIC [2] [µg/mL] | MIC [3] [µg/mL] | MIC [4] [µg/mL] | MIC [5] [µg/mL] | MIC [6] [µg/mL] | MIC [7] [µg/mL] | MIC [8] [µg/mL] | MIC [9] [µg/mL]
1 | CCc1c(-c2ccc3c(ccn3C)c2O)[nH]c(=O)c(C(=O)O)c1O [Cpd 374, 5-ethyl-4-hydroxy-6-(4-hydroxy-1-methyl-1H-indol-5-yl)-2-oxo-1,2-dihydropyridine-3-carboxylic acid] | 12.5 to 150 (≈ 38.1 to 457 µM) | 12.5 to 150 (≈ 38.1 to 457 µM) | 12.5 to 150 (≈ 38.1 to 457 µM) | 12.5 to 150 (≈ 38.1 to 457 µM) | 12.5 to 150 (≈ 38.1 to 457 µM) | 12.5 to 150 (≈ 38.1 to 457 µM) | 12.5 to 150 (≈ 38.1 to 457 µM) | 12.5 to 150 (≈ 38.1 to 457 µM) | 12.5 to 150 (≈ 38.1 to 457 µM)
2 | C=CC1C(O)=C(C(=O)O)C(=O)NC1c1ccc2c(ccn2C)c1 (stereo not drawn) [Cpd 375, 4-hydroxy-6-(1-methyl-1H-indol-5-yl)-2-oxo-5-vinyl-1,2,5,6-tetrahydropyridine-3-carboxylic acid] | 12.5 to 150 (≈ 40 to 480 µM) | < 1 | 12.5 to 150 (≈ 40 to 480 µM) | 1 to 3.5 (≈ 3.2 to 11.2 µM) | 12.5 to 150 (≈ 40 to 480 µM) | 1 to 3.5 (≈ 3.2 to 11.2 µM) | 12.5 to 150 (≈ 40 to 480 µM) | 12.5 to 150 (≈ 40 to 480 µM) | 12.5 to 150 (≈ 40 to 480 µM)
3 | Cn1ccc2cc(-c3[nH]c(=O)c(C(=O)O)c(O)c3Cl)ccc21 [Cpd 376, 5-chloro-4-hydroxy-6-(1-methyl-1H-indol-5-yl)-2-oxo-1,2-dihydropyridine-3-carboxylic acid] | 12.5 to 150 (≈ 39.2 to 471 µM) | 3.5 to 12.5 (≈ 11 to 39.2 µM) | 12.5 to 150 (≈ 39.2 to 471 µM) | 12.5 to 150 (≈ 39.2 to 471 µM) | 12.5 to 150 (≈ 39.2 to 471 µM) | 12.5 to 150 (≈ 39.2 to 471 µM) | 12.5 to 150 (≈ 39.2 to 471 µM) | 12.5 to 150 (≈ 39.2 to 471 µM) | 12.5 to 150 (≈ 39.2 to 471 µM)
4 | COc1c(-c2ccc3c(ccn3C)c2)[nH]c(=O)c(C(=O)O)c1O [Cpd 377, 4-hydroxy-5-methoxy-6-(1-methyl-1H-indol-5-yl)-2-oxo-1,2-dihydropyridine-3-carboxylic acid] | 12.5 to 150 (≈ 39.8 to 477 µM) | < 1 | 12.5 to 150 (≈ 39.8 to 477 µM) | 3.5 to 12.5 (≈ 11.1 to 39.8 µM) | 12.5 to 150 (≈ 39.8 to 477 µM) | 3.5 to 12.5 (≈ 11.1 to 39.8 µM) | 12.5 to 150 (≈ 39.8 to 477 µM) | 12.5 to 150 (≈ 39.8 to 477 µM) | 12.5 to 150 (≈ 39.8 to 477 µM)
5 | CCOc1c(-c2ccc3c(ccn3C)c2)[nH]c(=O)c(C(=O)O)c1O [Cpd 378, 4-hydroxy-5-ethoxy-6-(1-methyl-1H-indol-5-yl)-2-oxo-1,2-dihydropyridine-3-carboxylic acid] | 12.5 to 150 (≈ 38.1 to 457 µM) | 3.5 to 12.5 (≈ 10.7 to 38.1 µM) | 12.5 to 150 (≈ 38.1 to 457 µM) | 3.5 to 12.5 (≈ 10.7 to 38.1 µM) | 12.5 to 150 (≈ 38.1 to 457 µM) | 3.5 to 12.5 (≈ 10.7 to 38.1 µM) | 12.5 to 150 (≈ 38.1 to 457 µM) | 12.5 to 150 (≈ 38.1 to 457 µM) | 12.5 to 150 (≈ 38.1 to 457 µM)
6 | CCc1c(-c2cc3ccc(OC)cc3[nH]2)[nH]c(=O)c(C(=O)O)c1O [Cpd 379, 5-ethyl-4-hydroxy-6-(6-methoxy-1H-indol-2-yl)-2-oxo-1,2-dihydropyridine-3-carboxylic acid] | 12.5 to 150 (≈ 38.1 to 457 µM) | 3.5 to 12.5 (≈ 10.7 to 38.1 µM) | 12.5 to 150 (≈ 38.1 to 457 µM) | 12.5 to 150 (≈ 38.1 to 457 µM) | 12.5 to 150 (≈ 38.1 to 457 µM) | 12.5 to 150 (≈ 38.1 to 457 µM) | 12.5 to 150 (≈ 38.1 to 457 µM) | 12.5 to 150 (≈ 38.1 to 457 µM) | 12.5 to 150 (≈ 38.1 to 457 µM)
7 | CCc1c(-c2cc3cc(F)ccc3[nH]2)[nH]c(=O)c(C(=O)O)c1O [Cpd 380, 5-ethyl-6-(5-fluoro-1H-indol-2-yl)-4-hydroxy-2-oxo-1,2-dihydropyridine-3-carboxylic acid] | 12.5 to 150 (≈ 39.5 to 474 µM) | 3.5 to 12.5 (≈ 11.1 to 39.5 µM) | 12.5 to 150 (≈ 39.5 to 474 µM) | 12.5 to 150 (≈ 39.5 to 474 µM) | 12.5 to 150 (≈ 39.5 to 474 µM) | 12.5 to 150 (≈ 39.5 to 474 µM) | 12.5 to 150 (≈ 39.5 to 474 µM) | 12.5 to 150 (≈ 39.5 to 474 µM) | 12.5 to 150 (≈ 39.5 to 474 µM)
8 | CCc1ccc2[nH]c(-c3[nH]c(=O)c(C(=O)O)c(O)c3CC)cc2c1 [Cpd 381, 5-ethyl-6-(5-ethyl-1H-indol-2-yl)-4-hydroxy-2-oxo-1,2-dihydropyridine-3-carboxylic acid] | 12.5 to 150 (≈ 38.3 to 460 µM) | < 1 | 3.5 to 12.5 (≈ 10.7 to 38.3 µM) | 12.5 to 150 (≈ 38.3 to 460 µM) | 12.5 to 150 (≈ 38.3 to 460 µM) | 12.5 to 150 (≈ 38.3 to 460 µM) | 12.5 to 150 (≈ 38.3 to 460 µM) | 12.5 to 150 (≈ 38.3 to 460 µM) | 12.5 to 150 (≈ 38.3 to 460 µM)
9 | CCc1ccc2cc(-c3[nH]c(=O)c(C(=O)O)c(O)c3CC)[nH]c2c1 [Cpd 382, 5-ethyl-6-(6-ethyl-1H-indol-2-yl)-4-hydroxy-2-oxo-1,2-dihydropyridine-3-carboxylic acid] | 12.5 to 150 (≈ 38.3 to 460 µM) | < 1 | 3.5 to 12.5 (≈ 10.7 to 38.3 µM) | 12.5 to 150 (≈ 38.3 to 460 µM) | 12.5 to 150 (≈ 38.3 to 460 µM) | 12.5 to 150 (≈ 38.3 to 460 µM) | 12.5 to 150 (≈ 38.3 to 460 µM) | 12.5 to 150 (≈ 38.3 to 460 µM) | 12.5 to 150 (≈ 38.3 to 460 µM)
10 | CCCc1ccc2[nH]c(-c3[nH]c(=O)c(C(=O)O)c(O)c3CC)cc2c1 [Cpd 383, 5-ethyl-4-hydroxy-2-oxo-6-(5-propyl-1H-indol-2-yl)-1,2-dihydropyridine-3-carboxylic acid] | 12.5 to 150 (≈ 36.7 to 441 µM) | < 1 | 3.5 to 12.5 (≈ 10.3 to 36.7 µM) | 12.5 to 150 (≈ 36.7 to 441 µM) | 12.5 to 150 (≈ 36.7 to 441 µM) | 12.5 to 150 (≈ 36.7 to 441 µM) | 12.5 to 150 (≈ 36.7 to 441 µM) | 12.5 to 150 (≈ 36.7 to 441 µM) | 12.5 to 150 (≈ 36.7 to 441 µM)
11 | CCCc1ccc2cc(-c3[nH]c(=O)c(C(=O)O)c(O)c3CC)[nH]c2c1 [Cpd 384, 5-ethyl-4-hydroxy-2-oxo-6-(6-propyl-1H-indol-2-yl)-1,2-dihydropyridine-3-carboxylic acid] | 12.5 to 150 (≈ 36.7 to 441 µM) | < 1 | 12.5 to 150 (≈ 36.7 to 441 µM) | 12.5 to 150 (≈ 36.7 to 441 µM) | 12.5 to 150 (≈ 36.7 to 441 µM) | 12.5 to 150 (≈ 36.7 to 441 µM) | 12.5 to 150 (≈ 36.7 to 441 µM) | 12.5 to 150 (≈ 36.7 to 441 µM) | 12.5 to 150 (≈ 36.7 to 441 µM)
12 | CCc1c(-c2cc3cc(F)c(C)cc3[nH]2)[nH]c(=O)c(C(=O)O)c1O [Cpd 385, 5-ethyl-6-(5-fluoro-6-methyl-1H-indol-2-yl)-4-hydroxy-2-oxo-1,2-dihydropyridine-3-carboxylic acid] | 12.5 to 150 (≈ 37.8 to 454 µM) | < 1 | 3.5 to 12.5 (≈ 10.6 to 37.8 µM) | 12.5 to 150 (≈ 37.8 to 454 µM) | 12.5 to 150 (≈ 37.8 to 454 µM) | 12.5 to 150 (≈ 37.8 to 454 µM) | 12.5 to 150 (≈ 37.8 to 454 µM) | 12.5 to 150 (≈ 37.8 to 454 µM) | 12.5 to 150 (≈ 37.8 to 454 µM)
13 | CCc1ccc2[nH]c(-c3[nH]c(=O)c(C(=O)O)c(O)c3C)cc2c1 [Cpd 386, 6-(5-ethyl-1H-indol-2-yl)-4-hydroxy-5-methyl-2-oxo-1,2-dihydropyridine-3-carboxylic acid] | 12.5 to 150 (≈ 40 to 480 µM) | 3.5 to 12.5 (≈ 11.2 to 40 µM) | 12.5 to 150 (≈ 40 to 480 µM) | 12.5 to 150 (≈ 40 to 480 µM) | 12.5 to 150 (≈ 40 to 480 µM) | 12.5 to 150 (≈ 40 to 480 µM) | 12.5 to 150 (≈ 40 to 480 µM) | 12.5 to 150 (≈ 40 to 480 µM) | 12.5 to 150 (≈ 40 to 480 µM)
